Experimental data as given in ChEMBL document CHEMBL1128945, “Peptide inhibitors of IKB protease: Modification of the C-termini of Z-LLF-CHO” (Bioorg Med Chem Lett, 1996).
Square brackets hold non-standard residues; d marks the D form. Peptide text beside a SMILES is read from it. * marks the point of attachment. 1Nal = N[C@@H](Cc1cccc2ccccc12)C(=O)O; 2Nal = N[C@@H](Cc1ccc2ccccc2c1)C(=O)O; Cbz = O=C(OCc1ccccc1)*

What was measured:
[1] = Compound was evaluated for its ability to inhibit activation of NFkB protease stably expressed in human Jurkat T-cells; assay type: cell-based
Jurkat [2] = test: Ability to decrease IL-8 levels in human Jurkat T-cells; assay type: functional, cell-based
Jurkat [3] = test: Ability to decrease IL-2 levels in human Jurkat T-cells; assay type: functional, cell-based

Compound	IC50 [1]	IC50 (Jurkat [2])	IC50 (Jurkat [3])
CC(C)C[C@H](NC(=O)OCc1ccccc1)C(=O)N[C@@H](CC(C)C)C(=O)N[C@@H](Cc1ccccc1)C(=O)C(F)(F)C(F)(F)F	> 30 µM		
CC(C)C[C@H](NC(=O)OCc1ccccc1)C(=O)N[C@@H](CC(C)C)C(=O)N[C@@H](Cc1ccccc1)C(=O)Nc1ccc(C(F)(F)F)cc1	> 30 µM		
CC(=O)c1cccc(NC(=O)[C@H](CC(C)C)NC(=O)[C@H](CC(C)C)NC(=O)OCc2ccccc2)c1	> 10 µM		
CC(C)C[C@H](NC(=O)OCc1ccccc1)C(=O)N[C@@H](CC(C)C)C(=O)N[C@@H](Cc1ccccc1)C(=O)C(=O)C(=O)OCc1ccccc1	20 µM		
CC(=O)[C@H](Cc1ccccc1)NC(=O)[C@H](CC(C)C)NC(=O)[C@H](CC(C)C)NC(=O)OCc1ccccc1	> 30 µM		
CC(C)CC(NC(=O)OCc1ccccc1)C(=O)NC(CC(C)C)C(=O)NC(C=O)Cc1ccccc1 (stereo not drawn) (Cbz-Leu-Leu-Phe-aldehyde; configuration not given here)	2 µM	2 µM	0.9 µM
CC(C)C[C@H](NC(=O)[C@H](Cc1cccc2ccccc12)NC(=O)[C@H](Cc1ccc2ccccc2c1)NC(=O)OCc1ccccc1)C(=O)O (Cbz-[2Nal]-[1Nal]-Leu-OH)	3 µM		
CON(C)C(=O)[C@H](Cc1ccccc1)NC(=O)[C@H](CC(C)C)NC(=O)[C@H](CC(C)C)NC(=O)OCc1ccccc1 (stereo in doubt; 4a(L))	18 µM		
CON(C)C(=O)[C@H](Cc1ccccc1)NC(=O)[C@H](CC(C)C)NC(=O)[C@H](CC(C)C)NC(=O)OCc1ccccc1 (stereo in doubt; 4b(D))	> 30 µM		
